Here are results for 3 molecules from publication PMC4559766 (Scientific Reports, 2015).

Where two headings read alike, the source gives them in different places. Peptide text beside a SMILES is read from it.

Series [1] can be described thus: Blood biochemical indexes of liver and kidney function in tumor-bearing nude mice. The following applies: serum at end of 4 weeks of administration, n = 6.
Procedure: (§1) The blood was collected and centrifuged at the end of administration for 4 weeks. The serum was placed into eppendorf (EP) tube and immediately sent to the First Affiliated Hospital of Jinan University where several tests closely related to liver/kidney function were performed, and the blood biochemical indexes AST, ALT, AST/ALT, ALB, GLB, ALB/GLB, DBILI, IBILI, TBILI, BUN and CREA were obtained.
Series [2] relates to Du145 transplanted tumor. The series can be described thus: Microvessel density of removed tumors (anti-CD31 immunohistochemistry, Weidner method). The series is classed as in vivo, BALB/c-nu/nu nude mice. The following applies: tumors removed after 4 weeks of administration, anti-CD31, n = 6. The procedure: Four weeks after administration, the mice were executed, and the tumors of different groups were removed and fixed with 10% neutral formalin or 2.5% glutaraldehyde. The fixed tumor tissue slides were subjected to Hematoxylin-eosin (HE) staining, immunohistochemistry in which anti-CD31 antibody and biotin-labeled IgG were respectively used as the first and second antibody, and TEM analysis. The microvessel densitied (MVD) in different tumor tissues was calculated using the Weidner method.

Series [3] relates to Du145 transplanted tumor. The experiment in a line: Subcutaneous Du145 transplanted tumor in nude mice. The format is in vivo, BALB/c-nu/nu nude mice. As to conditions: tail vein once a day for 4 weeks. The procedure: Thirty male 4-week-old BALB/c-nu/nu nude mice (17–19 g), were divided into five groups. CK group (blank control) was the mice which were not inoculated Du145 cells, and the remaining four groups received inoculation of Du145 cells. 0.2 ml of Du145 cells suspension with the concentration of 1.5 × 10^7 cells/ml was injected subcutaneously into the right side of back of nude mice. […] The weights and volumes of tumors in different groups were measured once every four days, and tumor growth curves for each group were plotted.

The conditions of series [4]: mouse, in vivo.
Procedure: as §1
A further series is described as follows: in vivo. The following applies: BALB/c, mouse, iv, 5 mg/kg.
The conditions of series [5]: mouse, in vivo. This is another data set of the same source.
Procedure: (§2) Blood samples were collected by eye bleed from three mice at per time point prior to dosing and from 0.5 to 24 hours postdosing, and the plasma portion was analyzed by using an electrospray ionization, LC/MS/MS method described previously[48]. […] Tri (2-carboxyethyl) phosphine hydrochloride (TCEP) was used as a reducing agent to enhance peptide recovery and was added to all samples at a final concentration of 2 mM. After removing the plasma proteins through adding acetonitrile and centrifugation, the supernatant was transferred to another 96-well plate. Samples were analyzed by LC/MS/MS. Pharmacokinetic parameters were fitted to a two-compartment elimination model, and drug exposure (AUC), elimination half-life (t1⁄2), volume of distribution (Vd) and the clearance (CL) were calculated using WinNonlin Ver.
The target in another series is T1, HSA (Homo sapiens, UniProt P02768).
T1 construct: purchased Sigma
T1 sequence (P02768 25-609): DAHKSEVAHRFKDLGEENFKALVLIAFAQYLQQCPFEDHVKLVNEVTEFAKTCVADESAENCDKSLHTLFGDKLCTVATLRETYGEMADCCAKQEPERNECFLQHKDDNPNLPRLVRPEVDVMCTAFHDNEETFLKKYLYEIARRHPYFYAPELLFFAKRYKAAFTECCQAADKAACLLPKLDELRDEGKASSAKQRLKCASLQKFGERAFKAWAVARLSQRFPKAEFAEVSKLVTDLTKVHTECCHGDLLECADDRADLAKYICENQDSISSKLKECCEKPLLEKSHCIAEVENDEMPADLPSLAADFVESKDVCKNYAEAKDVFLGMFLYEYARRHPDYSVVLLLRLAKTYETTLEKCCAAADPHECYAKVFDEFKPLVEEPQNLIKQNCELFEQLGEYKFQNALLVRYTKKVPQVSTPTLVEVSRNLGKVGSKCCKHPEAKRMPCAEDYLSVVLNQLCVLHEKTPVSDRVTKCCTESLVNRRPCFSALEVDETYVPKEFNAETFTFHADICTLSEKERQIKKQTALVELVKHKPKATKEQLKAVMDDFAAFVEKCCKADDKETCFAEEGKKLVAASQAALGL
The series can be described thus: Phage ELISA of 7-mer peptides for serum albumin binding. The protocol: HSA or MSA were dissolved with 0.1 M NaHCO3 to obtain a solution at 100 μg/ml. The obtained solutions were loaded to each row of wells of enzyme-linked immunosorbent assay (ELISA) multiple-well plate, and the plates were blocked with 1% casein in NaHCO3. Each selected phage clone to be identified was subject to 4-fold serial dilution to allow 10^12 phage particles in the first well and 2.4 × 10^5 phage particles in the twelfth well. Each row of the diluted phages was transferred into the plate coated with HSA or MSA by using a mutichannel pipettor, and the plate was incubated at 25 °C for 1.5 hours. After the microtiter plate was repeatedly washed with TBST, bound phages were detected by incubation with Rabbit anti-M13 phage antibody and HRP-conjugated goat anti-rabbit IgG. ABTS/H2O2 substrate was used to measure the amount of HRP bound and monitor the absorbance at 405 nm.

Procedure for in vivo: as §2

In series [1], `C[C@]12CC[C@@H]3c4ccc(OC(=O)N(CCCl)CCCl)cc4CC[C@H]3[C@@H]1CC[C@@H]2O` [Estramustine] displayed an ALB of 15.2 ± 0.6 g/L, an ALB/GLB of 0.36 ± 0.02, an ALT of 81.5 ± 12.5 U/L and an AST of 161 ± 18 U/L. In series [1], this molecule came in with an AST/ALT of 1.99 ± 0.09, a CREA of 4 ± 0.3 µM, a DBILI of 3.7 ± 0.4 µM and a GLB of 42.1 ± 3.7 g/L. In series [1], this molecule came in with an IBILI of 7.7 ± 0.2 µM and a TBILI of 11.4 ± 0.2 µM. Besides, in the series with Du145 transplanted tumor [2], the “microvessel density (MVD)” value was 8.6 ± 0.83. For the same molecule, the “body weight change of treated mice” value with Du145 transplanted tumor [3] (40 nM RMP16, estramustine 60 mg/kg) is recorded as “reduced obviously”. In the series with Du145 transplanted tumor [3] (0.1 ml of 40 nM RMP16 or P16, estramustine 60 mg/kg, by average tumor weight versus NaCl group, n = 6), this molecule came in with a tumor inhibition rate of 83.03%.
As usually defined, the AUC is the area under the concentration-time curve, a measure of exposure. A low value points to low exposure. For orientation: Vd means the apparent volume that relates the amount in the body to the concentration in plasma or blood. Broadly, the clearance is a measure of how efficiently the substance is removed, as volume per time. Lower therefore signals inefficient removal. The term half-life denotes the time in which the quantity being followed falls by half. For `CC[C@H](C)[C@H](NC(=O)[C@H](CCCNC(=N)N)NC(=O)[C@H](CO)NC(=O)[C@@H](NC(=O)[C@@H](NC(=O)[C@H](Cc1c[nH]cn1)NC(=O)[C@@H](NC(=O)[C@H](CC(C)C)NC(=O)[C@@H](N)CC(C)C)[C@@H](C)O)[C@@H](C)O)[C@@H](C)CC)C(=O)N[C@@H](C)C(=O)N[C@H](C(=O)N[C@@H](CO)C(=O)N[C@@H](Cc1ccc(O)cc1)C(=O)N[C@@H](CCC(N)=O)C(=O)N[C@H](C(=O)N[C@@H](CCCCN)C(=O)N[C@H](C(=O)N[C@@H](CC(N)=O)C(=O)N[C@@H](CC(C)C)C(=O)N[C@@H](CC(C)C)C(=O)O)C(C)C)[C@@H](C)O)C(C)C` [P16] (H-LLTHTISRIAVSYQTKVNLL-OH), in series [4], the ALB stood at 17.25 ± 1.35 g/L, the ALB/GLB was found to be 0.45 ± 0.02, the ALT stood at 131.5 ± 24.5 U/L and the AST is given as 188.5 ± 29.5 U/L. In series [4], this molecule showed an AST/ALT of 1.45 ± 0.05, a BUN of 10.63 ± 0.35, a CREA of 9.5 ± 0.5 µM and a DBILI of 3.85 ± 0.25 µM. Besides, in series [4], the GLB came out at 41.75 ± 1.45 g/L, the IBILI worked out at 9.75 ± 0.45 µM and the TBILI was 13.6 ± 0.2 µM. Further, in the series “in vivo”, the AUC worked out at 12300 ng·h/mL, the Vd was determined as 0.0561 L/kg, the clearance is 6.75 mL/min/kg and the half-life is 5.76 min. Also, the half-life in series [5] was found to be 5.77 min.
Consider WQRPSSW, for which the “binding affinity to HSA compared with MSA” value on HSA (phage ELISA, plates coated with HSA or MSA) is “slightly higher than that of mouse serum albumin”. At HSA (sandwich immunoassay (ELISA), 4-fold serial dilution from 10^12 phage particles, absorbance at 405 nm), the “HSA-binding affinity of phage-encoded 7-mer peptide” value is recorded as “much higher HSA-binding affinity than HLYWQRP”.
